In publication PMC11007702 (ACS Omega, 2024) one finds IC50 data, which are given here for 1 compound.

Holding throughout (format): biochemical
Experiment [1] has as its target VEGFR-2 (Homo sapiens, UniProt P35968). Briefly: in vitro kinase inhibition.
The target of experiment [2] is EGFR^WT (Homo sapiens, UniProt P00533). In words: in vitro EGFR kinase inhibition assay.
The target of experiment [3] is EGFR^T790M (Homo sapiens, UniProt P00533, T790M). In words: in vitro EGFR kinase inhibition assay.
Sequence of EGFR^T790M (P00533 669-1210 T790M limits assumed): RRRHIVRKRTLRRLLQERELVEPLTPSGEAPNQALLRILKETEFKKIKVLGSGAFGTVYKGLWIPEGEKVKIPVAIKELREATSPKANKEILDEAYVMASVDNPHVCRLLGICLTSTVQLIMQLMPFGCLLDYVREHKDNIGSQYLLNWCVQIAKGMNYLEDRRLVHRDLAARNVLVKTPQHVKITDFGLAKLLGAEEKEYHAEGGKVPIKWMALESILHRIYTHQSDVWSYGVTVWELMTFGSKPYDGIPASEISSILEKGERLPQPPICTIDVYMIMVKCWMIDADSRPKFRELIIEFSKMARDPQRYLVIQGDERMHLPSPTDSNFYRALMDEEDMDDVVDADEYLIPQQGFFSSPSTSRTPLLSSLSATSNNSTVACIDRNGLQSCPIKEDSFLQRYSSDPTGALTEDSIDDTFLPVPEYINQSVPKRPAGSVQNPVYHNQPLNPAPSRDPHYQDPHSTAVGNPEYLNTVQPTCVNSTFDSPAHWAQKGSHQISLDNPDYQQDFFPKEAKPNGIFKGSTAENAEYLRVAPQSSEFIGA

The term IC50 denotes the concentration that gives 50% inhibition.

Sequence of VEGFR-2 (P35968 20-1356): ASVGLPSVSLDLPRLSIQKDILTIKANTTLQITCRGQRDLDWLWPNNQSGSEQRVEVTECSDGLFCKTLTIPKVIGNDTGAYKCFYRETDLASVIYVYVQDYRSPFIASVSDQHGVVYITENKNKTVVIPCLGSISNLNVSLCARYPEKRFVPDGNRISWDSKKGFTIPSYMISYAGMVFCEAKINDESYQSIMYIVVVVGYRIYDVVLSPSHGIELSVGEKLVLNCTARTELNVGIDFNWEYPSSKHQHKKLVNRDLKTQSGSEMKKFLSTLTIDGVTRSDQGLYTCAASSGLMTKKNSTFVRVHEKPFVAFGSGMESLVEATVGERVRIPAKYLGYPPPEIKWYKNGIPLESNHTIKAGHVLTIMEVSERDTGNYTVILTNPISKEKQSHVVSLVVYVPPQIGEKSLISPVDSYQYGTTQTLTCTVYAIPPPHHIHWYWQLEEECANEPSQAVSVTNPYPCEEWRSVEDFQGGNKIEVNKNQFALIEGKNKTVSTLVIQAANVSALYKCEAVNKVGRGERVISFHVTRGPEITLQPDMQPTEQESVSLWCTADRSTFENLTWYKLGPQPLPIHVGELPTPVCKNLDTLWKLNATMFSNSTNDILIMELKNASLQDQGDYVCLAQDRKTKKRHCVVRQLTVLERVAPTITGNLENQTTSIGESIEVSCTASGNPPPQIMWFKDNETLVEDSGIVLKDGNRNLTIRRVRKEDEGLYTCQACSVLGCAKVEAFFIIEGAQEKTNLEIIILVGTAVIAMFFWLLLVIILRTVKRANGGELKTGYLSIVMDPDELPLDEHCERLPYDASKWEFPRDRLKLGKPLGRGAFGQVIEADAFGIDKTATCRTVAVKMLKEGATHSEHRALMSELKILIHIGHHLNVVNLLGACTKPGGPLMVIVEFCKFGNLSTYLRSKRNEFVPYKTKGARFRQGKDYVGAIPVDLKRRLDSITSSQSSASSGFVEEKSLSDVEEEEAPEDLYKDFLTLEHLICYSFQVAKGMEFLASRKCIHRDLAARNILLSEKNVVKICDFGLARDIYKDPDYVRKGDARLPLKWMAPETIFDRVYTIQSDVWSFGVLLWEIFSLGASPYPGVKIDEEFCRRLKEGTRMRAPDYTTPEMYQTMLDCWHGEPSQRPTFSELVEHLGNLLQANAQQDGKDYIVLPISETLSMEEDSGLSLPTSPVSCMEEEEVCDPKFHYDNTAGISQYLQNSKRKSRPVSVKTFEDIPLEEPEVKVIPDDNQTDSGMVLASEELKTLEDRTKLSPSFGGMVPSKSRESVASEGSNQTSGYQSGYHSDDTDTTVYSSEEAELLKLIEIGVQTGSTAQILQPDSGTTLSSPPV
Sequence of EGFR^WT (P00533 25-1210): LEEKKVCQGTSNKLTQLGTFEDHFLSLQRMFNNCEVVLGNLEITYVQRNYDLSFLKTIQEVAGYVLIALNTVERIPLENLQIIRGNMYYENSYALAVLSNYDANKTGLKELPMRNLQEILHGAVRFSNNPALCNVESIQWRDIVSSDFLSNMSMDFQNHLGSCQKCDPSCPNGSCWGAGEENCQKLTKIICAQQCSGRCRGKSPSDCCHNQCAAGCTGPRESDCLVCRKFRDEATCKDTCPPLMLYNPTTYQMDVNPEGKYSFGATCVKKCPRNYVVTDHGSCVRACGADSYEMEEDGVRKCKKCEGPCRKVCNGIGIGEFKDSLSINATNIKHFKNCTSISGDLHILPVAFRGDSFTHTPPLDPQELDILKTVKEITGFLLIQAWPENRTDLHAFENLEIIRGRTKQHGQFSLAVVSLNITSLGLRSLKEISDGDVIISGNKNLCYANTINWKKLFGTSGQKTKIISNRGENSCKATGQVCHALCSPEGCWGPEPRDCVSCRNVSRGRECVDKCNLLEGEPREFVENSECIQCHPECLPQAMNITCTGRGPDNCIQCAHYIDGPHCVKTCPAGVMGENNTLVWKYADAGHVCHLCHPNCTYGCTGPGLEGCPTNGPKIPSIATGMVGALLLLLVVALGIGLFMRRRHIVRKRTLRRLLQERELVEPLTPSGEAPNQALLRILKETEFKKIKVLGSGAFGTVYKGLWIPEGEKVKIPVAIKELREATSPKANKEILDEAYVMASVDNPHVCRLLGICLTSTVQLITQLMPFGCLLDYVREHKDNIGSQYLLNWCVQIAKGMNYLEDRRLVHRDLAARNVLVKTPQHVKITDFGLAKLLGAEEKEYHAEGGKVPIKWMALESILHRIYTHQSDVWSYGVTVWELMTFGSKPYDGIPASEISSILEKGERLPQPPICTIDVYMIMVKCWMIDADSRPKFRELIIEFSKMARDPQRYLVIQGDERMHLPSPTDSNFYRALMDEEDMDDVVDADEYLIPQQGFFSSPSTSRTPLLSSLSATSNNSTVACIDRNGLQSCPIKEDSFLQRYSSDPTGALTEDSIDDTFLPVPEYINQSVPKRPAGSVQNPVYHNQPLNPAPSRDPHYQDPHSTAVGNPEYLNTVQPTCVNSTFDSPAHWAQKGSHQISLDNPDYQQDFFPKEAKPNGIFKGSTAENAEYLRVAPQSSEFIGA

As for `Cc1ccc(NC(=O)Cn2c(=O)c3c(ncn3C)n(C)c2=O)cc1` [T-1-PMPA, 2-(3,7-Dimethyl-2,6-dioxo-2,3,6,7-tetrahydro-1H-purin-1-yl)-N-(p-tolyl)acetamide], the IC50 in experiment [1] is 2070 nM; in experiment [2] it was 86 nM; in experiment [3], 562 nM.
